For this assay, the target named is T1, ZAP-70 (Homo sapiens, UniProt P43403).
T1 sequence (P43403 1-619): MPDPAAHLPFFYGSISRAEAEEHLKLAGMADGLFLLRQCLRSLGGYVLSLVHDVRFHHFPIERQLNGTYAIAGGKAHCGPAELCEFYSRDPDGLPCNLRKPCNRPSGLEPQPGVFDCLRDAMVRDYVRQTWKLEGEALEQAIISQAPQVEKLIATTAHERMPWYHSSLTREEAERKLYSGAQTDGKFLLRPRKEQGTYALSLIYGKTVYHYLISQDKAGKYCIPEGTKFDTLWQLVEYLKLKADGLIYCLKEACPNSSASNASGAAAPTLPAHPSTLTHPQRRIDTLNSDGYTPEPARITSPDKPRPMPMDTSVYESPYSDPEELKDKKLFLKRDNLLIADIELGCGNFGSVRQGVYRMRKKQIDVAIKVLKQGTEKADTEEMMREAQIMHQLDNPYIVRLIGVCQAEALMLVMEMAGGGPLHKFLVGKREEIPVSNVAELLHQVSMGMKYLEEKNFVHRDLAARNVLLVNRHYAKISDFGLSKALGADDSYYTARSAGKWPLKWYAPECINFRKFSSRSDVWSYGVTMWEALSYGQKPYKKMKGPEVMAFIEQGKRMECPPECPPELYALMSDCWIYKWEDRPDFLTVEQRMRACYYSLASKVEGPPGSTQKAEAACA
Nature of the assay: DELFIA assay (ZAP-70 kinase, phosphorylation of biotinylated poly(glu,tyr)). The class given is biochemical. Conditions: ZAP-70 DELFIA, class symbols; read-out: Activity (IC50 in vitro). The method, boiled down:
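3.1 nM ZAP-70 pre-incubated 10 min at room temperature with compound ([…]) and 62.5 nM biotinylated poly(glu,tyr) in 62.5 mM Mops pH 7.0, 12.5 mM MgCl2, 12.5% glycerol, 6.25% DMSO (pre-incubation concentrations); ATP added from 5 mM stock, 30 min reaction, EDTA stop. Phosphorylation read by DELFIA europium anti-phosphotyrosine fluorescence (340/615).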

This is an account of results in US20080119515A1, “Heterocyclic Kinase Inhibitors: Methods of Use and Synthesis” (priority 2003, published 2008).

In the case of `N#C[C@@H]1CCCN1C(=O)c1cc(NCc2ccc(C(F)(F)F)cc2)nc2ccc(-c3ccc4c(c3)OCO4)cc12` [Compound 382], the IC50 (commonly the concentration that inhibits the measured activity by half) was > 10000 nM. Consider `O=C(c1cc(NCc2ccc(C(F)(F)F)cc2)nc2c(-c3ccc4c(c3)OCO4)cc(Cl)cc12)N1CCC[C@H]1CN1CCCC1` [Compound 383], for which the concentration for half-maximal inhibition (IC50) was > 10000 nM. Then `O=C(c1cc(NCc2ccc(C(F)(F)F)cc2)nc2c(Cl)cc(-c3ccc4c(c3)OCO4)cc12)N1CCC[C@H]1CN1CCCC1` [Compound 384], with < 1000 nM; and `O=C(Nc1cc(C(=O)N2CCC[C@H]2CN2CCCC2)c2cc(-c3ccc4c(c3)OCO4)ccc2n1)c1ccccc1` [Compound 385], with 1000 to 10000 nM; and `O=C(Nc1cc(C(=O)N2CCC[C@H]2CN2CCCC2)c2cc(-c3ccc4c(c3)OCO4)ccc2n1)c1ccc(Cl)cc1` [Compound 386], with 1000 to 10000 nM. `N#Cc1ccc(-c2ccc3nc(/C=C/c4ccc(Cl)cc4)cc(C(=O)N4CCC[C@H]4CN4CCCC4)c3c2)cc1` [Compound 387]: the IC50 lay in the range of 1000 to 10000 nM. With `N#Cc1ccc(-c2ccc3nc(CCc4ccc(F)cc4)cc(C(=O)N4CCC[C@H]4CN4CCCC4)c3c2)cc1` [Compound 388], the IC50 lay in the range of 1000 to 10000 nM.

As for `N#Cc1ccc(-c2ccc3nc(CCc4ccc(C(F)(F)F)cc4)cc(C(=O)N4CCC[C@H]4CN4CCCC4)c3c2)cc1` [Compound 389], the IC50 was < 1000 nM. Then `N#Cc1ccc(-c2ccc3nc(CCc4ccc(Cl)cc4)cc(C(=O)N4CCC[C@H]4CN4CCCC4)c3c2)cc1` [Compound 390], with > 10000 nM; and `N#Cc1ccc(-c2ccc3nc(CCc4ccccc4)cc(C(=O)N4CCC[C@H]4CN4CCCC4)c3c2)cc1` [Compound 391], with > 10000 nM; and `Cc1ccc(CCc2cc(C(=O)N3CCC[C@H]3CN3CCCC3)c3cc(-c4ccc5c(c4)OCO5)ccc3n2)cc1` [Compound 392], with < 1000 nM. With `O=C(c1cc(CCc2ccc(-c3ccccc3)cc2)nc2ccc(-c3ccc4c(c3)OCO4)cc12)N1CCC[C@H]1CN1CCCC1` [Compound 393], the IC50 is < 1000 nM. Consider `Nc1ccc(CCc2cc(C(=O)N3CCC[C@H]3CN3CCCC3)c3cc(-c4ccc5c(c4)OCO5)ccc3n2)cc1` [Compound 394], for which the IC50 was > 10000 nM.

On to `O=C(c1cc(CCc2ccccc2F)nc2ccc(-c3ccc4c(c3)OCO4)cc12)N1CCC[C@H]1CN1CCCC1` [Compound 395], for which the IC50 was < 1000 nM. Then `O=C(c1cc(CCc2cccc(F)c2)nc2ccc(-c3ccc4c(c3)OCO4)cc12)N1CCC[C@H]1CN1CCCC1` [Compound 396], with < 1000 nM. As to `O=C(c1cc(CCc2ccc(F)cc2F)nc2ccc(-c3ccc4c(c3)OCO4)cc12)N1CCC[C@H]1CN1CCCC1` [Compound 397], the IC50 was < 1000 nM. Take `CCCCCc1ccc(CCc2cc(C(=O)N3CCC[C@H]3CN3CCCC3)c3cc(-c4ccc5c(c4)OCO5)ccc3n2)cc1` [Compound 398]: the IC50 was < 1000 nM. With `O=C(c1ccnc2ccc(-c3ccc4c(c3)OCO4)cc12)N1CCC[C@H]1CN1CCCC1` [Compound 399], the IC50 is > 10000 nM. In the case of `O=C(c1cc(Cc2ccc(Cl)cc2)nc2ccc(-c3ccc4c(c3)OCO4)cc12)N1CCC[C@H]1CN1CCCC1` [Compound 400], the IC50 was < 1000 nM. Regarding `O=C(c1cc(Cc2ccc(Cl)cc2Cl)nc2ccc(-c3ccc4c(c3)OCO4)cc12)N1CCC[C@H]1CN1CCCC1` [Compound 401], the IC50 is < 1000 nM. On to `C[Si](C)(C)C#Cc1cc(C(=O)N2CCC[C@H]2CN2CCCC2)c2cc(-c3ccc4c(c3)OCO4)ccc2n1` [Compound 402], for which the IC50 was < 1000 nM. Regarding `COc1ccc(C#Cc2cc(C(=O)N3CCC[C@H]3CN3CCCC3)c3cc(-c4ccc5c(c4)OCO5)ccc3n2)cc1` [Compound 403], the IC50 was < 1000 nM. For `O=C(c1cc(C#Cc2cccc(C(F)(F)F)c2)nc2ccc(-c3ccc4c(c3)OCO4)cc12)N1CCC[C@H]1CN1CCCC1` [Compound 404], the IC50 is < 1000 nM. As to `CCN(Cc1ccc(C)cc1)c1cc(C(=O)N2CCC[C@H]2CN2CCCC2)c2cc(-c3ccc4c(c3)OCO4)ccc2n1` [Compound 405], the IC50 is < 1000 nM. Then `O=C(c1cc(CCCc2ccc(Cl)cc2)nc2ccc(-c3ccc4c(c3)OCO4)cc12)N1CCC[C@H]1CN1CCCC1` [Compound 406], with < 1000 nM; and `O=C(c1cc(CCCCc2ccc(Cl)cc2)nc2ccc(-c3ccc4c(c3)OCO4)cc12)N1CCC[C@H]1CN1CCCC1` [Compound 407], with < 1000 nM. For `C[Si](C)(C)CCc1cc(C(=O)N2CCC[C@H]2CN2CCCC2)c2cc(-c3ccc4c(c3)OCO4)ccc2n1` [Compound 408], the IC50 is > 10000 nM.

Turning to `COc1ccc(CCc2cc(C(=O)N3CCC[C@H]3CN3CCCC3)c3cc(-c4ccc5c(c4)OCO5)ccc3n2)cc1` [Compound 409], the IC50 is > 10000 nM. As to `O=C(c1cc(CCc2cccc(C(F)(F)F)c2)nc2ccc(-c3ccc4c(c3)OCO4)cc12)N1CCC[C@H]1CN1CCCC1` [Compound 410], the concentration for half-maximal inhibition (IC50) was < 1000 nM. `O=C(c1cc(NCc2ccc(C(F)(F)F)cc2)nc2ccc(-c3ccc4c(c3)OCO4)cc12)N1CC=C[C@H]1CN1CCCC1` [Compound 411]: the IC50 was < 1000 nM. For the molecule `CN(C)c1ccc(Nc2cc(/C=C/c3ccc(F)cc3)nc3ccc(-c4ccc5c(c4)OCO5)cc23)cc1` [Compound 412], the IC50 is > 10000 nM. Consider `Fc1ccc(/C=C/c2cc(Nc3ccc(N4CCNCC4)cc3)c3cc(-c4ccc5c(c4)OCO5)ccc3n2)cc1` [Compound 413], for which the IC50 was 1000 to 10000 nM. The same measure for `Fc1ccc(CCc2cc(Nc3ccc(N4CCNCC4)cc3)c3cc(-c4ccc5c(c4)OCO5)ccc3n2)cc1` [Compound 414]: > 10000 nM; for `CN(C)c1ccc(Nc2cc(CCc3ccc(F)cc3)nc3ccc(-c4ccc5c(c4)OCO5)cc23)cc1` [Compound 415]: > 10000 nM; for `O=C(c1cc(NCc2ccc(C(F)(F)F)cc2)nc2ccc(-c3cccc(CO)c3)cc12)N1CCC[C@H]1CN1CCCC1` [Compound 416]: > 10000 nM. The same measure for `O=C(c1cc(NCc2ccc(C(F)(F)F)cc2)nc2ccc(-c3ccc(CO)cc3)cc12)N1CCC[C@H]1CN1CCCC1` [Compound 417]: > 10000 nM; for `COc1cc(-c2ccc3nc(NCc4ccc(C(F)(F)F)cc4)cc(C(=O)N4CCC[C@H]4CN4CCCC4)c3c2)ccc1O` [Compound 418]: > 10000 nM. In the case of `O=C(c1cc(NCc2ccc(C(F)(F)F)cc2)nc2ccc(-c3ccc(O)cc3)cc12)N1CCC[C@H]1CN1CCCC1` [Compound 419], the IC50 was > 10000 nM.

On to `CN(C)C(=O)c1ccc(-c2ccc3nc(NCc4ccc(C(F)(F)F)cc4)cc(C(=O)N4CCC[C@H]4CN4CCCC4)c3c2)cc1` [Compound 420], for which the IC50 was > 10000 nM. In the case of `Cn1ccc2cc(-c3ccc4nc(NCc5ccc(C(F)(F)F)cc5)cc(C(=O)N5CCC[C@H]5CN5CCCC5)c4c3)ccc21` [Compound 421], the IC50 was > 10000 nM. For the molecule `CC(C)(C)/C=C/c1ccc2nc(NCc3ccc(C(F)(F)F)cc3)cc(C(=O)N3CCC[C@H]3CN3CCCC3)c2c1` [Compound 422], the IC50 is > 10000 nM.

As to `Nc1ccc(-c2ccc3nc(NCc4ccc(C(F)(F)F)cc4)cc(C(=O)N4CCC[C@H]4CN4CCCC4)c3c2)cc1` [Compound 424], the IC50 was > 10000 nM. For the molecule `O=C(c1cc(NCc2ccc(C(F)(F)F)cc2)nc2ccc(-c3cccc([C@H]4CCNC[C@@H]4O)c3)cc12)N1CCC[C@H]1CN1CCCC1` [Compound 425], the IC50 is > 10000 nM. On to `O=C(c1cc(NCc2ccc(C(F)(F)F)cc2)nc2ccc(-c3ccc(C4CCNC[C@H]4O)cc3)cc12)N1CCC[C@H]1CN1CCCC1` (stereo partly shown) [Compound 426], for which the half-inhibitory concentration (IC50) was > 10000 nM. As for `O=C(c1cc(NCc2ccc(C(F)(F)F)cc2)nc2ccc(-c3cccc([C@H]4CNCC[C@@H]4O)c3)cc12)N1CCC[C@H]1CN1CCCC1` [Compound 427], the IC50 was > 10000 nM.

`O=C(c1cc(Nc2ccc(N3CCNCC3)cc2)nc2ccc(-c3ccc4c(c3)OCO4)cc12)N1CCCC1CN1CCCC1` (stereo not shown) [Compound 428]: the IC50 is < 1000 nM. On to `CN1CCN(c2ccc(Nc3cc(C(=O)N4CCCC4CN4CCCC4)c4cc(-c5ccc6c(c5)OCO6)ccc4n3)cc2)CC1` (stereo not shown) [Compound 429], for which the IC50 was < 1000 nM. Turning to `O=C(c1cc(Nc2cccc(C3CCNC[C@@H]3O)c2)nc2ccc(-c3ccc4c(c3)OCO4)cc12)N1CCCC1CN1CCCC1` (stereo partly shown) [Compound 430], the IC50 is < 1000 nM.

Regarding `O=C(Cc1cc(C(=O)N2CCC[C@H]2CN2CCCC2)c2cc(-c3ccc4c(c3)OCO4)ccc2n1)c1ccc(C(F)(F)F)cc1` [Compound 431], the IC50 fell in the range of 1000 to 10000 nM.

`Nc1cc(-c2ccc3c(c2)OCO3)cc2c(C(=O)N3CCC[C@H]3CN3CCCC3)cc(CCc3ccc(C(F)(F)F)cc3)nc12` [Compound 432]: the IC50 was < 1000 nM. In the case of `Nc1cc(CCc2ccc(C(F)(F)F)cc2)cc2c(C(=O)N3CCC[C@H]3CN3CCCC3)cc(CCc3ccc(C(F)(F)F)cc3)nc12` [Compound 433], the IC50 is < 1000 nM. Then `O=C(c1cc(CCCc2ccccc2)nc2ccc(-c3ccc4c(c3)OCO4)cc12)N1CCC[C@H]1CN1CCCC1` [Compound 434], with < 1000 nM.
